In patent US11629201B2, “PSMA-binding agents and uses thereof” (ITM Isotope Technologies Munich SE, priority 2017, dated 2023):

How the values were obtained:
[1] = test system: PC-3 PIP/flu tumor-bearing mice; assay: Biodistribution studies in PC-3 PIP/flu tumor-bearing mice; settings: for Tumor-to-blood / Tumor-to-kidney / Tumor-to-liver: PC-3 PIP tumor
[2] = test system: PC-3 PIP tumor; assay: Therapy study in PC-3 PIP tumor-bearing mice; type: in vivo
From the text: Mice of Groups B and D received 2 MBq of the radioligand (1 nmol/mouse), whereas mice of Groups C and E received 5 MBq of the radioligand (1 nmol/mouse). The mice were monitored by measuring body weights and the tumor size every other day over 12 weeks. Mice were euthanized when pre-defined endpoint criteria were reached, or when the study was terminated at Day 84. The relative body weight (RBW) was defined as [BWx/BW0], where BWx is the body weight in gram at a given day x and BW0 the body weight in gram at day 0. The tumor dimension was determined by measuring the longest tumor axis (L) and its perpendicular axis (W) with a digital caliper. The tumor volume (V) was calculated according to the equation [V=0.5*(L*W2)]. The relative tumor volume (RTV) was defined as [TVx/TV0], where TVx is the tumor volume in mm3 at a given day x and TV0 the tumor volume in mm3 at Day 0.
The efficacy of the radionuclide therapy was expressed as the tumor growth delay (TGDx), which was calculated as the time required for the tumor volume to increase x-fold over the initial volume at the Day 0. The tumor growth delay index [TGDIx=TGDx(T)/TGDx(C)] was calculated as the TGDx ratio of treated mice (T) over control mice (C) for a 2-fold (x=2, TGD2) and 5-fold (x=5, TGD5) increase of the initial tumor volume. As a measure to identify undesired side effects, body weights were compared at the day when the first control mouse had to be euthanized. After euthanasia, kidneys, liver and the brain were collected and weighed. The organ ratios (kidney-to-brain and liver-to-brain) were calculated using the organ masses obtained at the day of euthanasia.
The data was analyzed for significance as indicated in the result part using a one-way ANOVA with Tukey's multiple comparison post-test using GraphPad Prism software (version 7). A value of p<0.05 was considered statistically significant. Survival analysis was performed with Kaplan-Meier curves and a log-rank tests (Mantel Cox).

[3] = test system: PSMA-positive PC-3 PIP cells; assay: Cell uptake and internalization in PSMA-positive PC-3 PIP cells; type: cell-based; settings: 2 h and 4 h time-point, PC-3 PIP cells
[4] = 2 MBq/mouse (Groups B, D), control = 1

## Cc1ccc(CCCC(=O)NCCCCC(NC(=O)CN2CCN(CC(=O)O)CCN(CC(=O)O)CCN(CC(=O)O)CC2)C(=O)NCC2CCC(C(=O)NC(Cc3ccc4ccccc4c3)C(=O)NCCCCC(NC(=O)NC(CCC(=O)O)C(=O)O)C(=O)O)CC2)cc1 (stereo not shown) [^177Lu-PSMA-ALB-06, metal not drawn]
[1]; 4 h p.i.
  Blood: 16.2 ± 1.40 % IA/g
  Bone: 2.23 ± 0.08 % IA/g
  Intestines: 2.64 ± 0.27 % IA/g
  Lung: 9.40 ± 1.55 % IA/g
  Muscle: 1.60 ± 0.38 % IA/g
  PC-3 PIP Tumor: 76.08 ± 7.67 % IA/g
  Tumor-to-blood: 4.72 ± 0.51
  Tumor-to-kidney: 4.02 ± 0.25
  Tumor-to-liver: 24.29 ± 8.27
[1]; 24 h p.i.
  Blood: 1.49 ± 0.50 % IA/g
  Bone: 0.41 ± 0.15 % IA/g
  Heart: 0.68 ± 0.18 % IA/g
  Intestines: 0.30 ± 0.06 % IA/g
  Lung: 2.48 ± 2.68 % IA/g
  Muscle: 0.21 ± 0.04 % IA/g
  PC-3 PIP Tumor: 108 ± 11.6 % IA/g
  PC-3 flu Tumor: 0.79 ± 0.23 % IA/g
  Spleen: 0.76 ± 0.18 % IA/g
  Stomach: 0.28 ± 0.07 % IA/g
  Tumor-to-blood: 77.6 ± 21.8
  Tumor-to-kidney: 10.4 ± 1.16
  Tumor-to-liver: 222 ± 49.5
[1]; 72 h p.i.
  Blood: 0.62 ± 0.06 % IA/g
  Bone: 0.18 ± 0.01 % IA/g
  Heart: 0.26 ± 0.02 % IA/g
  Intestines: 0.15 ± 0.00 % IA/g
  Kidneys: 5.58 ± 0.62 % IA/g
  Liver: 0.28 ± 0.02 % IA/g
  Lung: 0.67 ± 0.05 % IA/g
  PC-3 PIP Tumor: 77.9 ± 7.52 % IA/g
  PC-3 flu Tumor: 0.43 ± 0.03 % IA/g
  Salivary glands: 0.24 ± 0.03 % IA/g
  Stomach: 0.13 ± 0.02 % IA/g
  Tumor-to-blood: 127 ± 24.9
  Tumor-to-kidney: 14.1 ± 2.02
  Tumor-to-liver: 277 ± 19.3
[2]; 2 MBq/mouse (Groups B, D)
  first mouse of group euthanized: 28 days
  median survival: 36 days
[2]; [4]
  TGDI2: 1.8 ± 0.5
  TGDI5: 2.3 ± 0.6
[2]; 5 MBq/mouse (Group E)
  tumor growth: the tumor growth was effectively inhibited
[2]; 5 MBq/mouse (Group E), n=6
  mice in which tumors disappeared entirely, no regrowth until Day 84: four
  mice still alive at the end of the study at Day 84: four
[2]; 5 MBq/mouse (Groups C, E)
  first mouse of group euthanized: 58 days
[3]
  internalized fraction / internalization rate versus reference: still comparable to ^177Lu-PSMA-617

## Cc1ccc(CCCC(=O)NC(CC(=O)NC(CC(=O)NC(CC(=O)NC(CCCCNC(=O)CN2CCN(CC(=O)O)CCN(CC(=O)O)CCN(CC(=O)O)CC2)C(=O)NCC2CCC(C(=O)NC(Cc3ccc4ccccc4c3)C(=O)NCCCCC(NC(=O)NC(CCC(=O)O)C(=O)O)C(=O)O)CC2)C(=O)O)C(=O)O)C(=O)O)cc1 (stereo not shown) [^177Lu-PSMA-ALB-08, metal not drawn]
[1]; 4 h p.i.
  Blood: 0.41 ± 0.18 % IA/g
  Bone: 0.16 ± 0.03 % IA/g
  Heart: 0.19 ± 0.07 % IA/g
  Intestines: 0.20 ± 0.09 % IA/g
  Kidneys: 27.2 ± 5.93 % IA/g
  Liver: 0.27 ± 0.10 % IA/g
  Lung: 0.48 ± 0.21 % IA/g
  Muscle: 0.06 ± 0.03 % IA/g
  PC-3 PIP Tumor: 46.9 ± 16.7 % IA/g
  PC-3 flu Tumor: 0.25 ± 0.19 % IA/g
  Salivary glands: 0.19 ± 0.06 % IA/g
  Spleen: 0.53 ± 0.10 % IA/g
  Stomach: 0.40 ± 0.25 % IA/g
  Tumor-to-blood: 116 ± 9.46
  Tumor-to-kidney: 1.70 ± 0.22
  Tumor-to-liver: 177 ± 2.72
[1]; 24 h p.i.
  Blood: 0.08 ± 0.01 % IA/g
  Bone: 0.07 ± 0.02 % IA/g
  Heart: 0.04 ± 0.01 % IA/g
  Intestines: 0.03 ± 0.01 % IA/g
  Kidneys: 13.9 ± 2.32 % IA/g
  Liver: 0.11 ± 0.02 % IA/g
  Lung: 0.09 ± 0.02 % IA/g
  Muscle: 0.02 ± 0.01 % IA/g
  PC-3 PIP Tumor: 33.0 ± 5.04 % IA/g
  PC-3 flu Tumor: 0.09 ± 0.05 % IA/g
  Salivary glands: 0.07 ± 0.05 % IA/g
  Spleen: 0.10 ± 0.03 % IA/g
  Stomach: 0.03 ± 0.01 % IA/g
  Tumor-to-blood: 421 ± 45.7
  Tumor-to-kidney: 2.39 ± 0.24
  Tumor-to-liver: 295 ± 40.1
[1]; 72 h p.i.
  Blood: 0.06 ± 0.02 % IA/g
  Bone: 0.09 ± 0.05 % IA/g
  Heart: 0.03 ± 0.01 % IA/g
  Intestines: 0.02 ± 0.01 % IA/g
  Kidneys: 7.98 ± 0.62 % IA/g
  Liver: 0.12 ± 0.01 % IA/g
  Lung: 1.28 ± 2.02 % IA/g
  Muscle: 0.01 ± 0.01 % IA/g
  PC-3 PIP Tumor: 24.1 ± 5.37 % IA/g
  PC-3 flu Tumor: 0.09 ± 0.07 % IA/g
  Salivary glands: 0.03 ± 0.02 % IA/g
  Spleen: 0.11 ± 0.05 % IA/g
  Stomach: 0.02 ± 0.01 % IA/g
  Tumor-to-blood: 416 ± 89.5
  Tumor-to-kidney: 3.02 ± 0.68
  Tumor-to-liver: 207 ± 47.1
[3]
  internalized fraction / internalization rate versus reference: still comparable to ^177Lu-PSMA-617
